Measurements taken from ChEMBL document CHEMBL1153202, “Optimization of piperidyl-ureas as inhibitors of soluble epoxide hydrolase” (Bioorg Med Chem Lett, 2010).
Values after ≈ are worked out from the molar mass of the structure shown.

Tests used:
[1] = Plasma concentration in Sprague-Dawley rat at 5 mg/kg, po after 4 hrs by LC-MS/MS analysis; assay type: ADME, organism-based; design: dose 5 mg/kg, route oral
[2] = Solubility of the compound; assay type: physicochemical
[3] = Plasma concentration in Sprague-Dawley rat at 30 mg/kg, po after 4 hrs by LC-MS/MS analysis; assay type: ADME, organism-based; design: dose 30 mg/kg, route oral
[4] = Plasma concentration in Sprague-Dawley rat at 5 mg/kg, po after 2 hrs by LC-MS/MS analysis; assay type: ADME, organism-based; design: dose 5 mg/kg, route oral
[5] = Plasma concentration in Sprague-Dawley rat at 5 mg/kg, po after 1 hr by LC-MS/MS analysis; assay type: ADME, organism-based; design: dose 5 mg/kg, route oral
[6] = Plasma concentration in Sprague-Dawley rat at 5 mg/kg, po after 6 hrs by LC-MS/MS analysis; assay type: ADME, organism-based; design: dose 5 mg/kg, route oral

Structure (SMILES)	concentration at 4 h [1] [nM]	solubility [2] [µg/mL]	concentration at 4 h [3] [nM]	concentration at 2 h [4] [nM]	concentration at 1 h [5] [nM]	concentration at 6 h [6] [nM]
O=C(NCc1ccc(Cl)cc1Cl)N1CCC(Oc2ccccc2)CC1	100	3.4 (≈ 8.96 µM)				
O=C(NCc1ccc(Cl)cc1Cl)N1CCC(Oc2ncccn2)CC1	1300	174 (≈ 456 µM)				
O=C(Nc1ccc(OC(F)(F)F)cc1)N1CCC(n2cccc2)CC1			2800			
O=C(O)c1ccc(OC2CCN(C(=O)NCc3ccc(Cl)cc3Cl)CC2)cc1	3800			2660	1700	5430
